One molecule from patent US5344841A, “Bis-(hydroxylakylamino)-anthraquinone inhibitors of protein kinase C” (Sphinx Pharmaceuticals Corporation, priority 1992, dated 1994) can be followed below.

In test [1] the target is protein kinase C. Nature of the test: Protein kinase C (PKC) inhibition assay (histone H1 phosphorylation). As to conditions: rat brain PKC, histone H1 substrate. The format is biochemical. As for the experimental part:
The protein kinase C (PKC) assay is designed to duplicated the in vivo conditions required for protein kinase C function. Therefore, pH, salt and cofactor concentrations are similar to physiologic levels. Histone H1 (lysine rich) is used in the assay as the phosphorylation acceptor protein because it is readily available and serves as a good substrate for protein kinase C. The enzyme is prepared from rat brain and is purified to apparent homogeneity as determined by a single band on silver stained SDS-polyacrylamide. Studies on the mechanism of regulation of protein kinase C by phospholipids, DAG and Ca^+2 have been hampered by the physical properties of the lipid cofactors. In the screening assay, phosphatidylserine (PS) and DAG are cosonicated to form unilamellar and multilamellar vesicles. The concentration of lipids in the assay are suboptimal to maximize the detection potential of the assay for inhibitors. […] The assay is started with the addition of enzyme and stopped after 10 min by the addition of 25% trichloroacetic acid (TCA) and 1.0 mg/ml bovine serum albumin (BSA). The radioactive histone product is retained and washed on glass fiber filters that allow the unreacted ^32 P-ATP to pass through. The amount of phosphorylation is determined by the radioactivity measured in a scintillation counter. Controls are included in every assay to measure background activity in the absence of enzyme, activity in the absence of lipids and the maximum enzyme activity with saturating levels of the activator lipids.

Test [2] has as its system MCF-7 human breast tumor cell line. Nature of the test: Human tumor growth inhibition, 3H-thymidine incorporation, MCF-7. The format is cell-based. As to conditions: 3H-thymidine uptake; read-out: IC50 MCF-7. The text has this: MCF-7 a human breast tumor cell line, and MCF-7/ADR an adriamycin resistant line of MCF-7 cells were obtained from the National Cancer Institute, Frederick, Md. NHEK a human keratinocyte cell line was obtained from Clonetic Corp., San Diego, Calif. 8226 a human myeloma cell line, 8226/MT a Mitoxantrone resistant line of 8226 cells, and 8226 ADR an adriamycin resistant line of 8226 cells were obtained from Dr. Bill Dalton, Arizona Cancer Center, Tuscon, Ariz.
Human tumor cells are trypsinized (0.05% trypsin, GIBCO), counted with a hemacytometer and seeded at a concentration of 10,000 cells/well in a 96 well microtiter plate. After allowing cells to attach to the surface overnight, the culture medium is aspirated and replaced with 100 μl of fresh medium. Test agents are diluted to determine dose response at 2× final concentration and added in quadruplicate at 100 μl/well to bring the total volume of each well to 200 μl. The microtiter plate is then incubated at 37° C. 5% CO2 overnight (18-24 hrs) before ^3 H-thymidine is added at a concentration of 0.5 μCi/well in 50 μl culture medium. The plate is incubated again for 4 hrs under the same conditions as above. Supernatant is then aspirated and 50 μl trypsin (0.05%, GIBCO) is added to each well. Cells are checked microscopically to determine detachment from surfaces, and plates are then harvested with a cell harvester (PHD, Cambridge Technology, Inc.) Filter papers corresponding to wells are placed in scintillation vials and counted to determine the amount of ^3 H-thymidine incorporated by the cells. Test agent response is compared to a positive control of cell wells with culture media only to determine the IC50. IC50 is the concentration of test compound required to inhibit fifty percent of the incorporation of ^3 H-thymidine into proliferating cells not exposed to test agent. Uptake of ^3 H-thymidine is a standard test for measuring the metabolism of cells. Cells which are actively proliferating take up ^3 H-thymidine, whereas cells that are not proliferating take up ^3 H-thymidine at much slower rates or not at all. Test agents that inhibit the uptake of ^3 H-thymidine thus slow the growth of cells.

The test system of test [3] is 8226/ADR adriamycin resistant line of 8226 cells. Put plainly: Human tumor growth inhibition, 3H-thymidine incorporation, 8226/ADR. The format is cell-based. As to conditions: 3H-thymidine uptake. Background: Dividing cells build labelled thymidine or BrdU into new DNA.
Test [4] has as its system MCF-7/ADR adriamycin resistant line of MCF-7 cells. Nature of the test: Human tumor growth inhibition, 3H-thymidine incorporation, MCF-7/ADR. As to conditions: NCI/ADR-RES, 3H-thymidine uptake. The test is classed as cell-based.
Test [5] has as its system 8226/MT Mitoxantrone resistant line of 8226 cells. Put plainly: Human tumor growth inhibition, 3H-thymidine incorporation, 8226/MT.

For the molecule `CCN(CC)CC(O)CNc1ccc(NCC2CO2)c2c1C(=O)c1ccccc1C2=O` (stereo not shown) [Compound 1b-1, 1-(3-diethylamino-2-hydroxypropylamino)-4-(2,3-epoxypropylamino)-9, 10-anthracenedione], the IC50 in test [1] is 110000 nM; in test [2], 25 nM; in test [3] it was 16 nM; in test [4] it was 60 nM; in test [5] (Homo sapiens, read-out: IC50 8226/MT), 8 nM. Moreover, in test [5] (8226/MT vs 8226), the “Resistance Ratio (8226/MT)” value was found to be 0.13. In test [5] (text wording of ratio), the “ratio of IC50 for 8226 cells to IC50 for 8226/MT cells” value amounted to 0.13.
